{"source": "paper PMC2806030", "about": "“Inhibition of mammalian S6 kinase by resveratrol suppresses autophagy” (Aging (Albany NY), 2009)", "key": {"NLK": {"biological_target": "NLK (Homo sapiens, UniProt Q9UBE8)", "sequence (Q9UBE8 whole entry)": "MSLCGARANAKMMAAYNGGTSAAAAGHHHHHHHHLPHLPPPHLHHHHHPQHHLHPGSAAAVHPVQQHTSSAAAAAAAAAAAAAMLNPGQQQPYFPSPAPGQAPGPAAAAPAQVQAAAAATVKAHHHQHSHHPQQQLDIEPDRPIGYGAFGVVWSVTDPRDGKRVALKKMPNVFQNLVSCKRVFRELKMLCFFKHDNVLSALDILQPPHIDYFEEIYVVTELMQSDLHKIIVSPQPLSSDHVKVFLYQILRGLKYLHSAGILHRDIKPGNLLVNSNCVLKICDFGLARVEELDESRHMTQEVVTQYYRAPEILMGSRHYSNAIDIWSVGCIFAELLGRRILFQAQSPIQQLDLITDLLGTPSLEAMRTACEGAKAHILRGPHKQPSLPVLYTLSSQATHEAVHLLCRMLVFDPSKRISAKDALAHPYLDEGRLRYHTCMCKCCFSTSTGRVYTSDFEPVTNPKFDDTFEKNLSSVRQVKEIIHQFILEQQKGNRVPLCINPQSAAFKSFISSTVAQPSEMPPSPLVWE", "assay": "in vitro kinase screen (Upstate KinaseProfiler), single dose […]", "type": "biochemical"}, "CDK1/cyclinB(h)": {"biological_target": "CDK1/cyclinB(h) (Homo sapiens, UniProt P06493)", "assay": "biochemical", "design": "Upstate KinaseProfiler in vitro kinase activity assay, per cent of DMSO control", "details": "read-out: Activity (% of Control)", "outline": "(§1)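 Profiling done with Upstate KinaseProfiler service across 100 kinases, resveratrol tested at 20 μM; activity expressed relative to control.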"}, "MST2(h)": {"biological_target": "T1, MST2(h) (Homo sapiens, UniProt Q13188)", "T1 construct": "gene STK3", "assay": "biochemical", "design": "Upstate KinaseProfiler in vitro kinase activity assay, per cent of DMSO control", "details": "read-out: Activity (% of Control)", "outline": "as §1"}, "PKCδ(h)": {"biological_target": "T2, PKCδ(h) (Homo sapiens, UniProt Q05655)", "T2 construct": "gene PRKCD", "assay": "biochemical", "design": "Upstate KinaseProfiler in vitro kinase activity assay, per cent of DMSO control", "details": "read-out: Activity (% of Control)", "outline": "as §1"}, "IRR(h)": {"biological_target": "T3, IRR(h) (Homo sapiens, UniProt P14616)", "T3 construct": "gene INSRR", "T3 sequence (P14616 whole entry)": "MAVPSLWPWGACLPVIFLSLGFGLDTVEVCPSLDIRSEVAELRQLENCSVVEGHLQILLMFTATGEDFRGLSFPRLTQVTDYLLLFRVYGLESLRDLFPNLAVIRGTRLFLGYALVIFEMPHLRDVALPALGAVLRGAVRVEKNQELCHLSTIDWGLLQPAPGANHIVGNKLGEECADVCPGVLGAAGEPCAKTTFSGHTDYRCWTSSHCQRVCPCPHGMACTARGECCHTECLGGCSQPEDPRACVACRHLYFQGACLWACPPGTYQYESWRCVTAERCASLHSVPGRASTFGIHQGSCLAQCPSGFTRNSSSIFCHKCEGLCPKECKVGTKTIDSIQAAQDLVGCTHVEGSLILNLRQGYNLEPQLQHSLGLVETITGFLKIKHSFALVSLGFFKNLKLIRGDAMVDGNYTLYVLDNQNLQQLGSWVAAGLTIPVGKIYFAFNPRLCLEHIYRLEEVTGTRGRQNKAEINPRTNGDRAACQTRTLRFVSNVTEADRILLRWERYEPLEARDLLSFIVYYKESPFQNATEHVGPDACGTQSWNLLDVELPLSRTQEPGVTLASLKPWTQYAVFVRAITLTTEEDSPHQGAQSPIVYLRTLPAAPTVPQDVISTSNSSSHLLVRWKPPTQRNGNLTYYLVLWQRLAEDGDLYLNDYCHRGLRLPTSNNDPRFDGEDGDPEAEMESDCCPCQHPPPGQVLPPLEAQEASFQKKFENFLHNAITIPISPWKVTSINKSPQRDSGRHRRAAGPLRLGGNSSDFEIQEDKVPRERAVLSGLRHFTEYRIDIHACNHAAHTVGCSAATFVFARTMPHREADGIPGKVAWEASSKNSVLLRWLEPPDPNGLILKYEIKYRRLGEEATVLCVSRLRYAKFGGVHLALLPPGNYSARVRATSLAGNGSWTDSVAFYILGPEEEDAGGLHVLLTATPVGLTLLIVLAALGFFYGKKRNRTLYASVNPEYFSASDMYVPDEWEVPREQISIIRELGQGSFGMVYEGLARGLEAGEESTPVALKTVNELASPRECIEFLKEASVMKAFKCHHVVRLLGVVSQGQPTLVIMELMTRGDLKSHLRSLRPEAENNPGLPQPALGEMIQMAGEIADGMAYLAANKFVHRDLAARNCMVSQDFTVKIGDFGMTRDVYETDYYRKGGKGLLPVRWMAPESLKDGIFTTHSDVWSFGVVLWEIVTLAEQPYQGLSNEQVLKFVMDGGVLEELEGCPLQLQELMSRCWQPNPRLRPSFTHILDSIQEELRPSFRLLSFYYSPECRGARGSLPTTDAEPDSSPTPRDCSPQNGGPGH", "assay": "biochemical", "design": "Upstate KinaseProfiler in vitro kinase activity assay, per cent of DMSO control", "details": "read-out: Activity (% of Control)", "outline": "as §1"}, "IKKα(h)": {"biological_target": "T4, IKKα(h) (Homo sapiens, UniProt O15111)", "T4 construct": "gene CHUK", "T4 sequence (O15111 whole entry)": "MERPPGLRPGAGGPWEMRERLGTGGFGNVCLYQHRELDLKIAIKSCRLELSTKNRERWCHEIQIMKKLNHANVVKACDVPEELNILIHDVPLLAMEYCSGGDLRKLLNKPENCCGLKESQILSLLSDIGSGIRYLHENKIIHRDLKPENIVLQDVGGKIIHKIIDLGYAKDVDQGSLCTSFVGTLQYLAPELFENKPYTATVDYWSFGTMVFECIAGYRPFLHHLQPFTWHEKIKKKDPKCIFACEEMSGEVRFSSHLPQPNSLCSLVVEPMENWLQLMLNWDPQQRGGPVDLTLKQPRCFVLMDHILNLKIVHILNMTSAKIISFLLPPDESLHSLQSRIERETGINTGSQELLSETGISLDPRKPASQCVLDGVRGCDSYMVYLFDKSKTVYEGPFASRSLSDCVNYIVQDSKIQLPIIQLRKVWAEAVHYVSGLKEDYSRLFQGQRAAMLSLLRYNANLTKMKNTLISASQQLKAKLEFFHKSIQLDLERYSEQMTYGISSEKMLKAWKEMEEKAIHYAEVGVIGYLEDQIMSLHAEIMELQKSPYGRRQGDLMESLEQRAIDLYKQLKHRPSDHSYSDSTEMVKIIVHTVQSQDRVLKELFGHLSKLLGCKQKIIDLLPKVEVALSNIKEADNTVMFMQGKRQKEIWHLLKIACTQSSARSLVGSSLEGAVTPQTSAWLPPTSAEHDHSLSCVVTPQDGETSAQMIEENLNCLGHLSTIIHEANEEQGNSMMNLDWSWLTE", "assay": "biochemical", "design": "Upstate KinaseProfiler in vitro kinase activity assay, per cent of DMSO control", "details": "read-out: Activity (% of Control)", "outline": "as §1"}, "TrkB(h)": {"biological_target": "T5, TrkB(h) (Homo sapiens, UniProt Q16620)", "T5 construct": "gene NTRK2", "T5 sequence (Q16620 whole entry)": "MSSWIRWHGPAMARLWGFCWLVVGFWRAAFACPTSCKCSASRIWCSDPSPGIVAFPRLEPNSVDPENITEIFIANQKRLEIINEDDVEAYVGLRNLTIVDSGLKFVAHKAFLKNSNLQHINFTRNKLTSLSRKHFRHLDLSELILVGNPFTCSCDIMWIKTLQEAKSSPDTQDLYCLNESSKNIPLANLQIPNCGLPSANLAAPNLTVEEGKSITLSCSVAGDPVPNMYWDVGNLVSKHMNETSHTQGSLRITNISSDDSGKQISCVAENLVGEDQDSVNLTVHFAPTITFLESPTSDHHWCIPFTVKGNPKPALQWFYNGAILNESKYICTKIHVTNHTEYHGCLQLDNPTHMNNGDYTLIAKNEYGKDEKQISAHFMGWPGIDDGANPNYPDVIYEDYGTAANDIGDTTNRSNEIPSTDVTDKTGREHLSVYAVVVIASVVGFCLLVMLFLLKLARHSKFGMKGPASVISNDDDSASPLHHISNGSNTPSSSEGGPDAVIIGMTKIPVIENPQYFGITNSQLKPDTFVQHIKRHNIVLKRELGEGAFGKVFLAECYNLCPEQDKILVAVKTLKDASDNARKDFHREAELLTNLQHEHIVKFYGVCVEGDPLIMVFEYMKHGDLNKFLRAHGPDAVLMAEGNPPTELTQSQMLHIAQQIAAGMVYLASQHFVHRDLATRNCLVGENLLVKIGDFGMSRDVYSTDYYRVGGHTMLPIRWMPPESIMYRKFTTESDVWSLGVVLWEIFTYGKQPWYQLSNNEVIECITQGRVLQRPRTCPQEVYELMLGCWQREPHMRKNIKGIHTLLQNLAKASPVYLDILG", "assay": "biochemical", "design": "Upstate KinaseProfiler in vitro kinase activity assay, per cent of DMSO control", "details": "read-out: Activity (% of Control)", "outline": "as §1"}, "PI 3-Kinaseβ(h)": {"biological_target": "T6, PI 3-Kinaseβ(h) (Homo sapiens, UniProt P42338)", "T6 construct": "gene PIK3CB", "assay": "biochemical", "design": "Upstate KinaseProfiler in vitro kinase activity assay, per cent of DMSO control", "details": "read-out: Activity (% of Control)", "outline": "as §1"}, "Flt3(h)": {"biological_target": "Flt3(h) (Homo sapiens, UniProt P36888)", "sequence (P36888 whole entry)": "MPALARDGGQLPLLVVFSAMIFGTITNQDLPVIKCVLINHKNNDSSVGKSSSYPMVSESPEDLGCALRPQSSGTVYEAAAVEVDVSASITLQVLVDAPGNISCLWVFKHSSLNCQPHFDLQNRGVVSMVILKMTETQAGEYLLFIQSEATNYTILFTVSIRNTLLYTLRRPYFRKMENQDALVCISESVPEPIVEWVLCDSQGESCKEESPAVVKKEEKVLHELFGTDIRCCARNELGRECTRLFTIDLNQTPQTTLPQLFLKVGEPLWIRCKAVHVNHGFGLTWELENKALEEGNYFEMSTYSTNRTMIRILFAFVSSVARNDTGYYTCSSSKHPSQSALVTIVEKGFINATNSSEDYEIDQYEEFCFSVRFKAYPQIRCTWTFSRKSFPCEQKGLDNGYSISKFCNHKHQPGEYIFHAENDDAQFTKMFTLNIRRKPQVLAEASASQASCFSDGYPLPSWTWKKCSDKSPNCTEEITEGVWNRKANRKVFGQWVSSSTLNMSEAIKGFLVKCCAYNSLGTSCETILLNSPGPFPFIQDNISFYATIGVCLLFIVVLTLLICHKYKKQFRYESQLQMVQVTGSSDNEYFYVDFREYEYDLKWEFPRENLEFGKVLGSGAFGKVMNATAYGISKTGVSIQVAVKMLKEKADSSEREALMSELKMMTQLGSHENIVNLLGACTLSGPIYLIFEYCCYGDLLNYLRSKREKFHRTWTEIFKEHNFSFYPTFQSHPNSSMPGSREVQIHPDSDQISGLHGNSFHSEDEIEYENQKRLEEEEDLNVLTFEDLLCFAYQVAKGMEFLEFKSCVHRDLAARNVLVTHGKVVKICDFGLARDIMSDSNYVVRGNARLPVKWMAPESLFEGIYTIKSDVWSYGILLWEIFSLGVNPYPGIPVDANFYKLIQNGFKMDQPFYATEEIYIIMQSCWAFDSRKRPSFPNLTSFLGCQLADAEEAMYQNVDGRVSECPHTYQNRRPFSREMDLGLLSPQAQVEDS", "assay": "biochemical", "design": "Upstate KinaseProfiler in vitro kinase activity assay, per cent of DMSO control", "details": "read-out: Activity (% of Control)", "outline": "as §1"}, "PKCα(h)": {"biological_target": "T7, PKCα(h) (Homo sapiens, UniProt P17252)", "T7 construct": "gene PRKCA", "assay": "biochemical", "design": "Upstate KinaseProfiler in vitro kinase activity assay, per cent of DMSO control", "details": "read-out: Activity (% of Control)", "outline": "as §1"}}}
{"smiles": "Oc1ccc(/C=C/c2cc(O)cc(O)c2)cc1", "note": "[Res, resveratrol]", "values": [{"measurement": "in vitro kinase screen (Upstate KinaseProfiler), single dose 20 μM", "setting": "NLK", "value": "Jak2, NLK, p70 S6 kinase (S6K1), Pim-1, and Pim-2 emerged as potential targets of resveratrol"}, {"measurement": "remaining activity at 20 µM", "setting": "CDK1/cyclinB(h)", "value": "67 ± 3", "unit": "%"}, {"measurement": "remaining activity at 20 µM", "setting": "MST2(h)", "value": "73 ± 8", "unit": "%"}, {"measurement": "remaining activity at 20 µM", "setting": "PKCδ(h)", "value": "92 ± 1", "unit": "%"}, {"measurement": "remaining activity at 20 µM", "setting": "IRR(h)", "value": 40, "unit": "%"}, {"measurement": "remaining activity at 20 µM", "setting": "IKKα(h)", "value": "40 ± 1", "unit": "%"}, {"measurement": "remaining activity at 20 µM", "setting": "TrkB(h)", "value": "98 ± 1", "unit": "%"}, {"measurement": "remaining activity at 20 µM", "setting": "PI 3-Kinaseβ(h)", "value": "107 ± 1", "unit": "%"}, {"measurement": "remaining activity at 20 µM", "setting": "Flt3(h)", "value": "41 ± 1", "unit": "%"}, {"measurement": "remaining activity at 20 µM", "setting": "PKCα(h)", "value": "114 ± 9", "unit": "%"}]}
